Test system: ISG54 promoter activity in HEK293T cells
Assay: ISG54 promoter luciferase reporter in HEK293T cells
Type: cell-based, human
Description: FIG. 5. BRD4 is required for ISG transcription. (A) HeLa cells were either left untreated or treated with IFN-α for 1 h in presence or absence of JQ-1 or HMBA. Using primers spanning intron-exon junctions, nuclear pre-mRNA for ISG54 and γ-actin were quantified by real-time RT-PCR and normalized to GAPDH mRNA. (B) Control and BRD4 KD cells were either left untreated or treated with IFN-α. ISG56 and BRD4 mRNA were quantified using real-time RT-PCR and normalized to GAPDH mRNA abundance. (C) HEK293T cells were transfected with pcDNA3 (Ctl) or Brd4 expression constructs along with a luciferase reporter driven by the ISG54 promoter. […] Nuclear proteins were extracted as a soluble fraction and a chromatin bound fraction and analyzed by western blotting using anti-BRD4, H4-AcK5 and actin antibodies. […] (F) ChIP assays were performed with antibodies against BRD4 and recovered ISG56, Mx1 and IRF9 TSS spanning sequences were quantified by real-time PCR, normalized to input, and represented as fold enrichment over the untreated sample.
It has been shown that BRD4 coordinates the recruitment of P-TEFb to regulate transcription of target genes, including ISGs. […] In order to focus on transcriptional events, we again monitored induction of ISG unspliced pre-mRNA. […]
Nuclear extracts were prepared and analyzed by immunoblotting as follows. […]

For `CC(/C=C/C(=O)NO)=C\[C@@H](C)C(=O)c1ccc(N(C)C)cc1` [TSA, Trichostatin A], the “IFN-driven ISG54 promoter activity (luciferase)” value (HEK293T cells) was “completely suppressed” and the “Brd4-driven ISG54 promoter expression (luciferase)” value (HEK293T cells overexpressing Brd4, with or without TSA and IFN) was “No significant differences”.
